From patent US20220390459A1, “RAPID, HIGH-INTENSITY CHEMILUMINESCENT DIOXETANES” (Beckman Coulter, Inc., priority 2019, published 2022)

System: alkaline phosphatase
Test: Chemiluminescence intensity over time after combining the phosphate dioxetane with alkaline phosphatase solution
Assay type: biochemical
Details: for profile of emission intensity over time (in words): alkaline phosphatase in 221 buffer, compound and TBE concentration differ per example; for intensity and speed of luminescence compared with other examples (in words): AP8, TBE enhancer in 221 buffer, concentrations differ per example
[1] = compound 1.25 mg/mL, TBE enhancer 5 mg/mL in 221 buffer, 100 μL + 10 μL AP8, 37° C.
[2] = compound 0.125 mg/mL, TBE enhancer 2.5 mg/mL in 221 buffer, 100 μL + 10 μL AP8, 37° C.
[3] = compound 0.25 mg/mL, TBE enhancer 5 mg/mL in 221 buffer, 100 μL + 10 μL AP8, 37° C.
[4] = compound 0.25 mg/mL, TBE enhancer 2.5 mg/mL in 221 buffer, 100 μL + 10 μL AP8, 37° C.
[5] = compound 0.2 mg/mL in 221 buffer without TBE enhancer, 100 μL + 10 μL AP9 [1.24E-20 mole/μL], 37° C.

Row | SMILES | profile of emission intensity over time (in words) (37° C.) | intensity and speed of luminescence compared with other examples (in words) (37° C.) | time to reach maximum, steady-state intensity [3] [min] | Σ value [3] | further results
1 | COC1(c2cccc(OP(=O)([O-])[O-])c2)OOC12C1CC3CC(C1)CC2C3.[Na+].[Na+] (centres unmarked) [Example 12, 4-methoxy-4-(3-phosphatephenyl)spiro[1,2-dioxetane-3,2′-adamantane], reference compound] | slow and gradual increase in emission intensity |  |  |  | profile of emission intensity over time (in words) (37° C., listed as Lumigen® PPD): slow luminescence; time to reach maximum light intensity or steady-state plateau [1]: more than 15 minutes; Σ value [1]: 2.27E+05
2 | COC1(c2ccc(Cl)c(OP(=O)([O-])[O-])c2)OOC12C1CC3CC2CC(Cl)(C3)C1.[Na+].[Na+] (centres unmarked) [Example 13, reference compound] | slow and gradual increase in emission intensity |  |  |  | profile of emission intensity over time (in words) (37° C., listed as Tropix CDP-Star®): slow luminescence; time to reach maximum light intensity or steady-state plateau [2]: more than 15 minutes; Σ value [2]: 1.91E+05
3 | COC1(c2ccc(-c3cccs3)c(OP(=O)([O-])[O-])c2)OOC12C1CC3CC(C1)CC2C3.[Na+].[Na+] (centres unmarked) [Example 14] | rapid increase in intensity | higher intensity and faster response compared to the compound of Examples 12-13 | ≤ 1 | 9.97E+05 | 
4 | COC1(c2ccc(-c3ccsc3)c(OP(=O)([O-])[O-])c2)OOC12C1CC3CC(C1)CC2C3.[Na+].[Na+] (centres unmarked) [Example 15] | rapid increase in intensity | higher intensity and faster response compared to the compound of Examples 12-13 | ≤ 2 | 7.38E+05 | 
5 | C=Cc1ccc(C2(OC)OOC23C2CC4CC(C2)CC3C4)cc1OP(=O)([O-])[O-].[Na+].[Na+] (centres unmarked) [Example 16] | rapid increase in intensity | higher intensity and faster response compared to the compound of Examples 12-15 |  |  | time to reach maximum, steady-state intensity [4]: less than 3 minutes; Σ value [4]: 1.59E+06
6 | COC1(c2ccc(-c3ccc(C#N)s3)c(OP(=O)([O-])[O-])c2)OOC12C1CC3CC(C1)CC2C3.[Na+].[Na+] (centres unmarked) [Example 17] | rapid increase in intensity |  |  |  | time to reach maximum, steady-state intensity [5]: ≤ 2 min; Σ value [5]: 2.77E+05
